Assay results reported in the NIST ThermoML archive (doi:10.1016/j.jct.2006.10.017).

Assays:
[1] = refractive index (Na D-line) (dimensionless); xn = mol fraction of the nth substance listed; settings: 101 kPa, Liquid
[2] = xn = mol fraction of the nth substance listed; settings: 101 kPa, Liquid

CCCCCCCC[n+]1ccn(C)c1.F[P-](F)(F)(F)(F)F [1-octyl-3-methylimidazolium hexafluorophosphate] + CCO
Settings | mass density, 293.15 K [kg/m3] | mass density, 298.15 K [kg/m3] | mass density, 303.15 K [kg/m3] | refractive index, 293.15 K | refractive index, 298.15 K | refractive index, 303.15 K | speed of sound, 293.15 K [m/s] | speed of sound, 298.15 K [m/s] | speed of sound, 303.15 K [m/s]
[1], x1 = 0.0447 | – | – | – | 1.37484 | 1.37299 | 1.37124 | – | – | –
[1], x1 = 0.0982 | – | – | – | 1.38484 | 1.38315 | 1.38286 | – | – | –
[1], x1 = 0.1976 | – | – | – | 1.3975 | 1.3959 | 1.39478 | – | – | –
[1], x1 = 0.2897 | – | – | – | 1.40449 | 1.40291 | 1.40181 | – | – | –
[1], x1 = 0.3897 | – | – | – | 1.41009 | 1.40855 | 1.40752 | – | – | –
[1], x1 = 0.499 | – | – | – | 1.41448 | 1.41289 | 1.41174 | – | – | –
[1], x1 = 0.5896 | – | – | – | 1.41703 | 1.41553 | 1.41412 | – | – | –
[1], x1 = 0.708 | – | – | – | 1.41965 | 1.41817 | 1.41682 | – | – | –
[1], x1 = 0.8037 | – | – | – | 1.4215 | 1.42004 | 1.41858 | – | – | –
[1], x1 = 0.904 | – | – | – | 1.42304 | 1.42165 | 1.42026 | – | – | –
[1], x1 = 0.9502 | – | – | – | 1.42375 | 1.42231 | 1.42112 | – | – | –
[1], x1 = 1 | – | – | – | 1.4244 | 1.42302 | 1.42165 | – | – | –
[2], x1 = 0.0447 | 873.9 | 869.7 | 865.4 | – | – | – | 1180 | 1165 | 1151
[2], x1 = 0.0982 | 946.5 | 942.3 | 938.1 | – | – | – | 1206 | 1193 | 1180
[2], x1 = 0.1976 | 1035.8 | 1031.7 | 1027.5 | – | – | – | 1257 | 1245 | 1233
[2], x1 = 0.2897 | 1089.5 | 1085.3 | 1081.1 | – | – | – | 1295 | 1283 | 1271
[2], x1 = 0.3897 | 1130.4 | 1126.3 | 1122.2 | – | – | – | 1327 | 1315 | 1303
[2], x1 = 0.499 | 1162.8 | 1158.8 | 1154.8 | – | – | – | 1352 | 1340 | 1328
[2], x1 = 0.5896 | 1183.2 | 1179.3 | 1175.3 | – | – | – | 1369 | 1357 | 1344
[2], x1 = 0.708 | 1204.3 | 1200.4 | 1196.5 | – | – | – | 1386 | 1373 | 1360
[2], x1 = 0.8037 | 1217.9 | 1214 | 1210.2 | – | – | – | 1398 | 1385 | 1372
[2], x1 = 0.904 | 1229.9 | 1226 | 1222.2 | – | – | – | 1411 | 1397 | 1383
[2], x1 = 0.9502 | 1234.7 | 1230.9 | 1227.1 | – | – | – | 1416 | 1401 | 1387
[2], x1 = 1 | 1239.6 | 1235.7 | 1231.9 | – | – | – | 1424 | 1408 | 1393

COS(=O)(=O)[O-].Cn1cc[n+](C)c1 [1,3-dimethylimidazolium methylsulfate] + CCO
Settings | mass density, 293.15 K [kg/m3] | mass density, 298.15 K [kg/m3] | mass density, 303.15 K [kg/m3] | refractive index, 293.15 K | refractive index, 298.15 K | refractive index, 303.15 K | speed of sound, 293.15 K [m/s] | speed of sound, 298.15 K [m/s] | speed of sound, 303.15 K [m/s]
[1], x1 = 0.0738 | – | – | – | 1.3881 | 1.38734 | 1.38689 | – | – | –
[1], x1 = 0.1356 | – | – | – | 1.40426 | 1.40398 | 1.40322 | – | – | –
[1], x1 = 0.2275 | – | – | – | 1.42272 | 1.42173 | 1.42109 | – | – | –
[1], x1 = 0.3317 | – | – | – | 1.43794 | 1.43648 | 1.4356 | – | – | –
[1], x1 = 0.429 | – | – | – | 1.44915 | 1.44761 | 1.44677 | – | – | –
[1], x1 = 0.5395 | – | – | – | 1.45944 | 1.45819 | 1.45699 | – | – | –
[1], x1 = 0.6331 | – | – | – | 1.4665 | 1.4651 | 1.46385 | – | – | –
[1], x1 = 0.7308 | – | – | – | 1.472 | 1.47068 | 1.4694 | – | – | –
[1], x1 = 0.8142 | – | – | – | 1.47624 | 1.47489 | 1.47353 | – | – | –
[1], x1 = 0.9081 | – | – | – | 1.48029 | 1.47895 | 1.47763 | – | – | –
[1], x1 = 0.9512 | – | – | – | 1.48211 | 1.48079 | 1.47949 | – | – | –
[1], x1 = 1 | – | – | – | 1.48392 | 1.4827 | 1.48129 | – | – | –
[2], x1 = 0.0738 | 891.5 | 887.4 | 883.3 | – | – | – | 1241 | 1226 | 1211
[2], x1 = 0.1356 | 959.7 | 955.7 | 951.7 | – | – | – | 1305 | 1291 | 1277
[2], x1 = 0.2275 | 1040.6 | 1036.7 | 1032.8 | – | – | – | 1396 | 1383 | 1370
[2], x1 = 0.3317 | 1111.6 | 1107.8 | 1104 | – | – | – | 1490 | 1477 | 1465
[2], x1 = 0.429 | 1163.9 | 1160.2 | 1156.5 | – | – | – | 1568 | 1555 | 1542
[2], x1 = 0.5395 | 1211.1 | 1207.5 | 1203.8 | – | – | – | 1642 | 1629 | 1617
[2], x1 = 0.6331 | 1243.6 | 1239.9 | 1236.3 | – | – | – | 1693 | 1681 | 1668
[2], x1 = 0.7308 | 1272 | 1268.4 | 1264.8 | – | – | – | 1737 | 1725 | 1713
[2], x1 = 0.8142 | 1293 | 1289.3 | 1285.7 | – | – | – | 1769 | 1757 | 1745
[2], x1 = 0.9081 | 1313.3 | 1309.7 | 1306.1 | – | – | – | 1800 | 1787 | 1775
[2], x1 = 0.9512 | 1321.7 | 1318.1 | 1314.5 | – | – | – | 1812 | 1800 | 1788
[2], x1 = 1 | 1330.9 | 1327.2 | 1323.7 | – | – | – | 1826 | 1813 | 1801

CCO [ethanol] + COS(=O)(=O)[O-].Cn1cc[n+](C)c1
x2 = 0
Settings | mass density, 293.15 K [kg/m3] | mass density, 298.15 K [kg/m3] | mass density, 303.15 K [kg/m3] | refractive index, 293.15 K | refractive index, 298.15 K | refractive index, 303.15 K | speed of sound, 293.15 K [m/s] | speed of sound, 298.15 K [m/s] | speed of sound, 303.15 K [m/s]
[1] | – | – | – | 1.36138 | 1.35929 | 1.35725 | – | – | –
[2] | 789.3 | 785.1 | 780.7 | – | – | – | 1160 | 1143 | 1127
